Data taken from the supplement of paper PMC8960247.
Structures can show the parent of a compound that is named as a salt. ± gives the standard error.

Test system: 621-103 (TSC2-rescued)
Assay: relative viability vs DMSO; higher = less cytotoxic
Conditions: 0.0001 µM; serum: 10% FBS; 72 h
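Further: immortalized renal angiomyolipoma cells stably carrying empty vector or TSC2, dosed in 384-well plates in DMEM, viability normalized to vehicle-treated wells within each plate.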

| SMILES | relative viability [%] |
| --- | --- |
| CC1(C)CCC(c2ccc(Cl)cc2)=C(CN2CCN(c3ccc(C(=O)NS(=O)(=O)c4ccc(N[C@H](CCN5CCOCC5)CSc5ccccc5)c(S(=O)(=O)C(F)(F)F)c4)cc3)CC2)C1 [ABT-263 (Navitoclax)] | 100.9 ± 0.9 |
| COc1ccc(S(=O)(=O)Nc2cccnc2Nc2ccc(O)cc2)cc1 [ABT-751] | 108 ± 3.8 |
| Cc1ccc(F)c(NC(=O)Nc2ccc(-c3cccc4[nH]nc(N)c34)cc2)c1 [ABT-869] | 97.84 ± 0.17 |
| C[C@]1(c2nc3c(C(N)=O)cccc3[nH]2)CCCN1 [ABT-888] | 104.8 ± 1 |
| CC(C)(C)c1cc(NC(=O)Nc2ccc(-c3cn4c(n3)sc3cc(OCCN5CCOCC5)ccc34)cc2)no1 [AC-220] | 96.29 ± 0.69 |
| N#C/C(=C\c1ccc(O)c(O)c1)C(=O)NCc1ccccc1 [AG-490] | 109 ± 1.2 |
| Cc1csc(-c2nnc(Nc3ccc(Oc4ncccc4-c4ccnc(N)n4)cc3)c3ccccc23)c1 [AMG900] | 88.9 ± 4.5 |
| CC(C)[C@H](C(=O)Nc1ccc(C(=O)NO)cc1)c1ccccc1 [AR-42 (HDAC-42)] | 109 ± 2 |
| Clc1ccc(C2(c3ccc(-c4cn[nH]c4)cc3)CCNCC2)cc1 [AT7867] | 89.1 ± 5.1 |
| COc1cc2nccc(Oc3ccc(NC(=O)Nc4cc(C)on4)c(Cl)c3)c2cc1OC [AV-951(Tivozanib)] | 101.2 ± 0.14 |
| Cc1cc(Nc2nc(N[C@@H](C)c3ccc(F)cc3)c(C#N)cc2F)n[nH]1 [AZ 960] | 99.9 ± 3.1 |
| CCN(CCO)CCCOc1ccc2c(Nc3cc(CC(=O)Nc4cccc(F)c4)[nH]n3)ncnc2c1 [AZD1152-HQPA (Barasertib)] | 97.225 ± 0.04 |
| Cc1cc(Nc2nc(N[C@@H](C)c3ncc(F)cn3)ncc2Cl)[nH]n1 [AZD1480] | 97.89 ± 0.31 |
| O=C(c1cc(Cc2n[nH]c(=O)c3ccccc23)ccc1F)N1CCN(C(=O)C2CC2)CC1 [AZD2281 (Olaparib)] | 104 ± 1.5 |
| Cc1ncc(-c2ccnc(Nc3ccc(S(C)(=O)=O)cc3)n2)n1C(C)C [AZD5438] | 110.9 ± 0.22 |
| Cn1cnc2c(F)c(Nc3ccc(Br)cc3Cl)c(C(=O)NOCCO)cc21 [AZD6244 (Selumetinib)] | 101.6 ± 0.39 |
| COc1ccc(-c2ccc3c(N4CCOC[C@@H]4C)nc(N4CCOC[C@@H]4C)nc3n2)cc1CO [AZD8055] | 90.4 ± 3.3 |
| Cc1cc(C(=O)NOCCO)c(Nc2ccc(I)cc2F)n(C)c1=O [AZD8330] | 101.1 ± 0.99 |
| CNC(=O)CN1CCC(Oc2cc3c(Nc4cccc(Cl)c4F)ncnc3cc2OC)CC1 [AZD8931] | 102 ± 1.5 |
| CC(=O)O[C@H]1CC[C@@]2(C)C(=CC[C@@H]3[C@@H]2CC[C@]2(C)C(c4cccnc4)=CC[C@@H]32)C1 [Abiraterone Acetate (CB7630)] | 106 ± 5.8 |

| SMILES | relative viability [%] |
| --- | --- |
| CC(=O)Nc1ccccc1 [Acetanilide] | 104 ± 1.9 |
| Nc1[nH]cnc2ncnc1-2 [Adenine HCl] | 95.5 ± 2.2 |
| Nc1[nH]cnc2ncnc1-2 [Adenine] | 101 ± 3.9 |
| COc1cccc2c1C(=O)c1c(O)c3c(c(O)c1C2=O)C[C@@](O)(C(=O)CO)C[C@@H]3O[C@H]1C[C@H](N)[C@H](O)[C@H](C)O1 [Adriamycin] | 102.4 ± 0.79 |
| NCCCC(O)(P(=O)(O)O)P(=O)(O)O [Alendronate Sodium] | 98.7 ± 3.1 |
| COCCCOc1cc(C[C@@H](C[C@H](N)[C@@H](O)C[C@H](C(=O)NCC(C)(C)C(N)=O)C(C)C)C(C)C)ccc1OC [Aliskiren hemifumarate] | 105 ± 2.6 |
| O=C1c2ccccc2C(=O)c2c1ccc(O)c2O [Alizarin] | 101 ± 1.6 |
| Oc1ncnc2[nH]ncc12 [Allopurinol] | 103 ± 3.1 |
| NC12CC3CC(CC(C3)C1)C2 [Amantadine HCl (Symmetrel)] | 92.2 ± 5.4 |
| CC(NC(C)(C)C)C(=O)c1cccc(Cl)c1 (stereo not drawn) [Amfebutamone] | 103.2 ± 0.3 |
| CCN1CCCC1CNC(=O)c1cc(S(=O)(=O)CC)c(N)cc1OC (stereo not drawn) [Amisulpride] | 104 ± 1.8 |
| CCOC(=O)C1=C(COCCN)NC(C)=C(C(=O)OC)C1c1ccccc1Cl (stereo not drawn) [Amlodipine besylate] | 96.2 ± 2.2 |
| CC(C)(C#N)c1cc(Cn2cncn2)cc(C(C)(C)C#N)c1 [Anastrozole (Arimidex)] | 101 ± 1.4 |
| N#CC1(c2ccc(NC(=O)c3cccnc3NCc3ccncc3)cc2)CCCC1 [Apatinib] | 111.1 ± 1.1 |
| O=c1cc(-c2ccc(O)cc2)oc2cc(O)cc(O)c12 [Apigenin] | 112 ± 4.7 |
| COc1ccc(-n2nc(C(N)=O)c3c2C(=O)N(c2ccc(N4CCCCC4=O)cc2)CC3)cc1 [Apixaban] | 117 ± 4.5 |
| COc1cc(OC)c(OC)cc1C=O [Asaraldehyde] | 101 ± 2 |
| CN1CC2c3ccccc3Oc3ccc(Cl)cc3C2C1 (stereo not drawn) [Asenapine maleate] | 110 ± 0.8 |
| CN1[C@@H]2CC[C@H]1C[C@@H](OC(=O)C(CO)c1ccccc1)C2 (stereo partly drawn) [Atropine sulfate monohydrate] | 80.5 ± 7 |

Same assay, conditions: 0.001 µM; serum: 10% FBS; 72 h

| SMILES | relative viability [%] |
| --- | --- |
| CC1(C)CCC(c2ccc(Cl)cc2)=C(CN2CCN(c3ccc(C(=O)NS(=O)(=O)c4ccc(N[C@H](CCN5CCOCC5)CSc5ccccc5)c(S(=O)(=O)C(F)(F)F)c4)cc3)CC2)C1 [ABT-263 (Navitoclax)] | 98.3 ± 2.4 |
| COc1ccc(S(=O)(=O)Nc2cccnc2Nc2ccc(O)cc2)cc1 [ABT-751] | 108 ± 2.6 |
| Cc1ccc(F)c(NC(=O)Nc2ccc(-c3cccc4[nH]nc(N)c34)cc2)c1 [ABT-869] | 100 ± 1.3 |
| C[C@]1(c2nc3c(C(N)=O)cccc3[nH]2)CCCN1 [ABT-888] | 103.4 ± 0.84 |
| CC(C)(C)c1cc(NC(=O)Nc2ccc(-c3cn4c(n3)sc3cc(OCCN5CCOCC5)ccc34)cc2)no1 [AC-220] | 98 ± 1.9 |
| N#C/C(=C\c1ccc(O)c(O)c1)C(=O)NCc1ccccc1 [AG-490] | 109 ± 3.9 |
| Cc1csc(-c2nnc(Nc3ccc(Oc4ncccc4-c4ccnc(N)n4)cc3)c3ccccc23)c1 [AMG900] | 77.64 ± 0.67 |
| CC(C)[C@H](C(=O)Nc1ccc(C(=O)NO)cc1)c1ccccc1 [AR-42 (HDAC-42)] | 98.16 ± 0.28 |
| Clc1ccc(C2(c3ccc(-c4cn[nH]c4)cc3)CCNCC2)cc1 [AT7867] | 90.1 ± 2.4 |
| COc1cc2nccc(Oc3ccc(NC(=O)Nc4cc(C)on4)c(Cl)c3)c2cc1OC [AV-951(Tivozanib)] | 104 ± 1.3 |
| Cc1cc(Nc2nc(N[C@@H](C)c3ccc(F)cc3)c(C#N)cc2F)n[nH]1 [AZ 960] | 101 ± 1.2 |
| CCN(CCO)CCCOc1ccc2c(Nc3cc(CC(=O)Nc4cccc(F)c4)[nH]n3)ncnc2c1 [AZD1152-HQPA (Barasertib)] | 98.1 ± 0.35 |
| Cc1cc(Nc2nc(N[C@@H](C)c3ncc(F)cn3)ncc2Cl)[nH]n1 [AZD1480] | 89.6 ± 1.1 |
| O=C(c1cc(Cc2n[nH]c(=O)c3ccccc23)ccc1F)N1CCN(C(=O)C2CC2)CC1 [AZD2281 (Olaparib)] | 103 ± 1.7 |
| Cc1ncc(-c2ccnc(Nc3ccc(S(C)(=O)=O)cc3)n2)n1C(C)C [AZD5438] | 105.8 ± 0.22 |
| Cn1cnc2c(F)c(Nc3ccc(Br)cc3Cl)c(C(=O)NOCCO)cc21 [AZD6244 (Selumetinib)] | 100.1 ± 0.89 |
| COc1ccc(-c2ccc3c(N4CCOC[C@@H]4C)nc(N4CCOC[C@@H]4C)nc3n2)cc1CO [AZD8055] | 81.1 ± 4.3 |
| Cc1cc(C(=O)NOCCO)c(Nc2ccc(I)cc2F)n(C)c1=O [AZD8330] | 92.9 ± 1.4 |
| CNC(=O)CN1CCC(Oc2cc3c(Nc4cccc(Cl)c4F)ncnc3cc2OC)CC1 [AZD8931] | 99.7 ± 2.3 |
